Measured values published in PubChem BioAssay AID1963862 (Molecular Pharmacology Branch, DTP, NCI, 2024).
pIC50: −log10 of the molar value.

Tested on: KRAS patient-derived spheroids with HUVEC/MSC, viability
Test: Anticancer human tumor 941728-121-R-J1-PDC patient-derived lung adenocarcinoma cell line growth inhibition [KRAS2]
Conditions: for viability, T/C: stronger effect = lower value; active = viability on the fitted dose curve at most 10% of control; inactive = the rest
How it was run: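 Combination screen of spheroid viability in tumor-cell co-cultures with endothelial (HUVEC) and mesenchymal stem cell stroma. Each agent was tested in half-log dilutions, topping at clinical Cmax or at 10 microM without a known Cmax.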

[1] = curve of first compound, second compound 0.1 µM
[2] = curve of first compound, second compound 0.316 µM
[3] = curve of first compound, second compound 1 µM
[4] = curve of first compound, second compound 3.16 µM
[5] = curve of first compound, second compound 10 µM
[6] = second compound 0.1 µM, first compound 0.0316 µM
[7] = second compound 0.1 µM, first compound 0.1 µM
[8] = second compound 0.1 µM, first compound 0.316 µM
[9] = second compound 0.1 µM, first compound 1 µM
[10] = second compound 0.1 µM, first compound 3.16 µM
[11] = second compound 0.1 µM, first compound 10 µM
[12] = second compound 0.316 µM, first compound 0.0316 µM
[13] = second compound 0.316 µM, first compound 0.1 µM
[14] = second compound 0.316 µM, first compound 0.316 µM
[15] = second compound 0.316 µM, first compound 1 µM
[16] = second compound 0.316 µM, first compound 3.16 µM
[17] = second compound 0.316 µM, first compound 10 µM
[18] = second compound 1 µM, first compound 0.0316 µM
[19] = second compound 1 µM, first compound 0.1 µM
[20] = second compound 1 µM, first compound 0.316 µM
[21] = second compound 1 µM, first compound 1 µM
[22] = second compound 1 µM, first compound 3.16 µM
[23] = second compound 1 µM, first compound 10 µM
[24] = second compound 3.16 µM, first compound 0.0316 µM
[25] = second compound 3.16 µM, first compound 0.1 µM
[26] = second compound 3.16 µM, first compound 0.316 µM
[27] = second compound 3.16 µM, first compound 1 µM
[28] = second compound 3.16 µM, first compound 3.16 µM
[29] = second compound 3.16 µM, first compound 10 µM
[30] = second compound 10 µM, first compound 0.0316 µM
[31] = second compound 10 µM, first compound 0.1 µM
[32] = second compound 10 µM, first compound 0.316 µM
[33] = second compound 10 µM, first compound 1 µM
[34] = second compound 10 µM, first compound 3.16 µM
[35] = second compound 10 µM, first compound 10 µM
[36] = second compound 0.1 µM, first compound 0.01 µM
[37] = second compound 0.316 µM, first compound 0.01 µM
[38] = second compound 1 µM, first compound 0.01 µM
[39] = second compound 3.16 µM, first compound 0.01 µM
[40] = second compound 0.1 µM, first compound 0.000316 µM
[41] = second compound 0.1 µM, first compound 0.001 µM
[42] = second compound 0.1 µM, first compound 0.00316 µM
[43] = second compound 0.316 µM, first compound 0.000316 µM
[44] = second compound 0.316 µM, first compound 0.001 µM
[45] = second compound 0.316 µM, first compound 0.00316 µM
[46] = second compound 1 µM, first compound 0.000316 µM
[47] = second compound 1 µM, first compound 0.001 µM
[48] = second compound 1 µM, first compound 0.00316 µM
[49] = second compound 3.16 µM, first compound 0.000316 µM
[50] = second compound 3.16 µM, first compound 0.001 µM
[51] = second compound 3.16 µM, first compound 0.00316 µM
[52] = second compound 10 µM, first compound 0.000316 µM
[53] = second compound 10 µM, first compound 0.001 µM
[54] = second compound 10 µM, first compound 0.00316 µM
[55] = second compound 10 µM, first compound 0.01 µM
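Note: spheroids exposed to agents for seven days before readout.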

COc1cc(Nc2ncc3c(n2)-c2ccc(Cl)cc2C(c2c(F)cccc2OC)=NC3)ccc1C(=O)O + C=CC(=O)N1CCN(c2nc(=O)n(-c3c(C)ccnc3C(C)C)c3nc(-c4c(O)cccc4F)c(F)cc23)C(C)C1
inactive: viability, T/C [6] 24.9% | viability, T/C [7] 17.2% | viability, T/C [8] 16% | viability, T/C [9] 22.7% | viability, T/C [10] 25.7% | viability, T/C [11] 17.3% | viability, T/C [12] 29.3% | viability, T/C [13] 26.2% | viability, T/C [14] 26.3% | viability, T/C [15] 25.5% | viability, T/C [16] 24.4% | viability, T/C [17] 16.7% | viability, T/C [18] 17.9% | viability, T/C [19] 27.4% | viability, T/C [20] 31% | viability, T/C [21] 26.4% | viability, T/C [22] 24.1% | viability, T/C [23] 21% | viability, T/C [24] 25.5% | viability, T/C [25] 29.6% | viability, T/C [26] 31.5% | viability, T/C [27] 29% | viability, T/C [28] 25.7% | viability, T/C [29] 22.4% | viability, T/C [30] 37% | viability, T/C [31] 38.5% | viability, T/C [32] 35.2% | viability, T/C [33] 32% | viability, T/C [34] 28.1% | viability, T/C [35] 25.8%
> 7.50: pIC50 [1] | pIC50 [2] | pIC50 [3] | pIC50 [4] | pIC50 [5]

CC(=O)OC12COC1CC(O)C1(C)C(=O)C(O)C3=C(C)C(OC(=O)C(O)C(NC(=O)OC(C)(C)C)c4ccccc4)CC(O)(C(OC(=O)c4ccccc4)C21)C3(C)C (configuration not stated) + C=CC(=O)N1CCN(c2nc(OCC3CCCN3C)nc3c2CCN(c2cccc4cccc(C)c24)C3)CC1CC#N
> 8.00: pIC50 (curve of first compound, second compound 0.0316 µM) | pIC50 [1] | pIC50 [2] | pIC50 [3] | pIC50 [4]
inactive: viability, T/C (second compound 0.0316 µM, first compound 0.01 µM) 28.2% | viability, T/C (second compound 0.0316 µM, first compound 0.0316 µM) 28.4% | viability, T/C (second compound 0.0316 µM, first compound 0.1 µM) 26.8% | viability, T/C (second compound 0.0316 µM, first compound 0.316 µM) 25.7% | viability, T/C (second compound 0.0316 µM, first compound 1 µM) 29.1% | viability, T/C (second compound 0.0316 µM, first compound 3.16 µM) 26.7% | viability, T/C [36] 24.6% | viability, T/C [6] 22.2% | viability, T/C [7] 21.9% | viability, T/C [8] 22.9% | viability, T/C [9] 24.6% | viability, T/C [10] 26.2% | viability, T/C [37] 22.8% | viability, T/C [12] 21.6% | viability, T/C [13] 21.1% | viability, T/C [14] 22.1% | viability, T/C [15] 21.1% | viability, T/C [16] 24.4% | viability, T/C [38] 21.2% | viability, T/C [18] 23.4% | viability, T/C [19] 21.1% | viability, T/C [20] 19.8% | viability, T/C [21] 21.7% | viability, T/C [22] 20.8% | viability, T/C [39] 27.9% | viability, T/C [24] 33.1% | viability, T/C [25] 26.4% | viability, T/C [26] 27.3% | viability, T/C [27] 26.9% | viability, T/C [28] 27.9%

Cn1ncnc1[C@H]1c2n[nH]c(=O)c3cc(F)cc(c23)N[C@@H]1c1ccc(F)cc1
< 7.00: pIC50 (curve of compound)
inactive: viability, T/C (compound 0.000316 µM) 98.9% [middle of 5 runs] | viability, T/C (compound 0.001 µM) 104% [middle of 5 runs] | viability, T/C (compound 0.00316 µM) 91.5% [middle of 5 runs] | viability, T/C (compound 0.01 µM) 93.2% [middle of 5 runs]

CN(C)C/C=C/C(=O)Nc1cc2c(Nc3ccc(F)c(Cl)c3)ncnc2cc1O[C@H]1CCOC1 + CC1OCC2(CCN(c3cnc(Sc4ccnc(N)c4Cl)c(N)n3)CC2)C1N
inactive: viability, T/C [40] 38.3% | viability, T/C [41] 41.9% | viability, T/C [42] 45.5% | viability, T/C [36] 44.5% | viability, T/C [6] 41.4% | viability, T/C [7] 43.3% | viability, T/C [43] 33.7% | viability, T/C [44] 35.2% | viability, T/C [45] 43.1% | viability, T/C [37] 42.3% | viability, T/C [12] 45.8% | viability, T/C [13] 41.2% | viability, T/C [46] 70.1% | viability, T/C [47] 52.4% | viability, T/C [48] 63.1% | viability, T/C [38] 70.6% | viability, T/C [18] 58.4% | viability, T/C [19] 51.9% | viability, T/C [49] 29.7% | viability, T/C [50] 28.3% | viability, T/C [51] 30.2% | viability, T/C [39] 31.6% | viability, T/C [24] 31.3% | viability, T/C [25] 36.7% | viability, T/C [52] 54.6% | viability, T/C [53] 45% | viability, T/C [54] 30.6% | viability, T/C [55] 52.5% | viability, T/C [30] 31.3% | viability, T/C [31] 31%
9.28: pIC50 [5]
> 9.50: pIC50 [1] | pIC50 [2] | pIC50 [4]
< 7.00: pIC50 [3]

Cn1ncnc1[C@H]1c2n[nH]c(=O)c3cc(F)cc(c23)N[C@@H]1c1ccc(F)cc1 + CC1OCC2(CCN(c3cnc(Sc4ccnc(N)c4Cl)c(N)n3)CC2)C1N
inactive: viability, T/C [40] 49.5% | viability, T/C [41] 50% | viability, T/C [42] 43.2% | viability, T/C [36] 44.7% | viability, T/C [6] 44.2% | viability, T/C [7] 46.5% | viability, T/C [43] 37.7% | viability, T/C [44] 28.5% | viability, T/C [45] 26.1% | viability, T/C [37] 32.7% | viability, T/C [12] 28.1% | viability, T/C [13] 28.1% | viability, T/C [46] 28.7% | viability, T/C [47] 25.9% | viability, T/C [48] 22.2% | viability, T/C [38] 20.6% | viability, T/C [18] 19.2% | viability, T/C [19] 26.4% | viability, T/C [49] 26.6% | viability, T/C [50] 24.8% | viability, T/C [51] 25.3% | viability, T/C [39] 20% | viability, T/C [24] 14.4% | viability, T/C [25] 19.3% | viability, T/C [52] 23.8% | viability, T/C [53] 21.5% | viability, T/C [54] 19.9% | viability, T/C [55] 18.9% | viability, T/C [30] 18.3% | viability, T/C [31] 14.7%
9.48: pIC50 [1]
> 9.50: pIC50 [2] | pIC50 [3] | pIC50 [4] | pIC50 [5]

COc1cc(OC)cc(N(CCNC(C)C)c2ccc3ncc(-c4cnn(C)c4)nc3c2)c1
inactive: viability, T/C (compound 0.1 µM) 104% [middle of 5 runs] | viability, T/C (compound 0.316 µM) 92% [middle of 5 runs]

COC(=O)c1ccc2c(C(=Nc3ccc(N(C)C(=O)CN4CCN(C)CC4)cc3)c3ccccc3)c(O)[nH]c2c1 + COc1cc2nc(C)nc(NC(C)c3cc(N)cc(C(F)(F)F)c3)c2cc1OC1CCOC1
> 7.50: pIC50 [2] | pIC50 [3] | pIC50 [4] | pIC50 [5]
active: viability, T/C [29] 0.49% | viability, T/C [34] 0.62% | viability, T/C [35] 1.04%
5.00: pIC50 [1]
inactive: viability, T/C [6] 108% | viability, T/C [7] 45.3% | viability, T/C [8] 46.4% | viability, T/C [9] 70.2% | viability, T/C [10] 46.2% | viability, T/C [11] 48.5% | viability, T/C [12] 45.5% | viability, T/C [13] 43.4% | viability, T/C [14] 40.5% | viability, T/C [15] 49.7% | viability, T/C [16] 42.7% | viability, T/C [17] 42.9% | viability, T/C [18] 42.4% | viability, T/C [19] 40.9% | viability, T/C [20] 37% | viability, T/C [21] 41.6% | viability, T/C [22] 35.1% | viability, T/C [23] 42.2% | viability, T/C [24] 43.5% | viability, T/C [25] 36.7% | viability, T/C [26] 41.7% | viability, T/C [27] 42.6% | viability, T/C [28] 22.6% | viability, T/C [30] 26.2% | viability, T/C [31] 21.7% | viability, T/C [32] 21.1% | viability, T/C [33] 16.9%
